The values below come from patent publication US9522888B2, “Substituted bicyclic compounds” (BRISTOL-MYERS SQUIBB COMPANY, priority 2014, dated 2016).

For assay [1], the target named is S1P3 (membranes prepared from EDG3-Gal5-bla HEK293T cells) (Homo sapiens (Human), UniProt Q99500). Kind of assay: Receptor [35S] GTPγS binding assay (S1P3 GTPγS). The format is biochemical. As to conditions: phosphate examples; read-out: S1P3 GTPγS. The method, boiled down: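 Membranes (3 μg protein/well) from S1P1/CHO cells or EDG3-Gal5-bla HEK293T cells (S1P3) were incubated 45 min at room temperature with 0.2 nM final [35S]GTPγS in HEPES pH 7.5 buffer with 10 μM GDP, MgCl2 and saponin. Bound label counted after filtration; EC50 from 11-point, 3-fold dilutions.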
Chain of S1P3 (membranes prepared from EDG3-Gal5-bla HEK293T cells) (Q99500 whole entry): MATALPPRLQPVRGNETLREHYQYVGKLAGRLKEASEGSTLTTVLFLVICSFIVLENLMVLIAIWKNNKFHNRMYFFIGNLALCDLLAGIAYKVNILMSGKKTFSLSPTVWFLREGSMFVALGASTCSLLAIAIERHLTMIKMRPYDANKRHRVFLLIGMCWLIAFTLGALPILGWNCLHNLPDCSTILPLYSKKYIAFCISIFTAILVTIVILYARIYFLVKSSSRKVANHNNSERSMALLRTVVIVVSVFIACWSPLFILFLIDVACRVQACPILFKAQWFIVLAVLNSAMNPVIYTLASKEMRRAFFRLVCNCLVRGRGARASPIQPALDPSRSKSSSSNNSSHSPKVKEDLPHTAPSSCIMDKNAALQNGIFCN
A general note: Binding of GTPγS marks nucleotide exchange on a G protein.

The target of assay [2] is hS1P1/CHO cells (Homo sapiens (Human), UniProt P21453). Kind of assay: hS1P1 ERK phosphorylation (S1P1 pERK). As to conditions: phosphate examples. The format is cell-based. Summed up: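 CHO cells expressing human S1P1, serum-starved 2 h, exposed to compound in HBSS/20 mM HEPES for 7 min at 37° C. Lysates assayed for phospho-ERK by SureFire kit; response given as % activation relative to 10 μM S1P.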
Chain of hS1P1/CHO cells (P21453 whole entry): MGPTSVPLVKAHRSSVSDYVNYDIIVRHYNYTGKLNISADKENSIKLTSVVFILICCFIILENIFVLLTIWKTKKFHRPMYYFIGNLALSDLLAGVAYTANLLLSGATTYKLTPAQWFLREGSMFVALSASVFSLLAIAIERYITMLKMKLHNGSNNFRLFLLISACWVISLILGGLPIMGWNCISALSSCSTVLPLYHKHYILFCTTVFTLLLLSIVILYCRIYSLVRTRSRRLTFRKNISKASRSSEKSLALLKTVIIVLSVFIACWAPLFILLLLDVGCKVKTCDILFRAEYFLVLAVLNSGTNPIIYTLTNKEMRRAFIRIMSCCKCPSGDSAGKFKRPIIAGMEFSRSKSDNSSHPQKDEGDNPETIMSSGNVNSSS

Assay [3] concerns the target human S1P1 (Homo sapiens (Human), UniProt P21453). The assay is described as follows: S1P1 binding assay (33P-S1P radioligand competition, CHO cell membranes). As to conditions: phosphate examples; read-out: S1P1 Binding. Summed up: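 Radioligand is 33P-S1P, competing for membranes from human S1P1-expressing CHO cells. Membranes resuspended in 50 mM HEPES pH 7.5, 100 mM NaCl, 1 mM MgCl2, 2 mM EDTA.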
A general note: In a radioligand displacement assay an active substance lowers the binding of a labelled ligand.

Assay [4] deals with S1P1 (membranes prepared from S1P1/CHO cells) (Homo sapiens (Human), UniProt P21453). Kind of assay: Receptor [35S] GTPγS binding assay (S1P1 GTPγS). The format is biochemical. The following applies: phosphate examples; read-out: S1P1 GTPγS. Summed up: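 Membranes from S1P1-expressing CHO cells (3 μg protein/well) incubated with compound (11-point, 3-fold dilution) and 0.2 nM final [35S]GTPγS, 45 min at room temperature. Assay buffer: 20 mM HEPES pH 7.5, 10 mM MgCl2, 150 mM NaCl, 10 μM GDP, 0.1% fatty-acid-free BSA, 10 μg/ml saponin. Filter-bound radioactivity counted by scintillation; EC50 derived.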
Chain of S1P1 (membranes prepared from S1P1/CHO cells) (P21453 whole entry): as above

Chain of human S1P1 (P21453 whole entry): as above

Take `CC(C)SCC[C@H]1CCc2cc([C@H]3CC[C@](N)(COP(=O)(O)O)C3)ccc2C1` [compound 536]: the EC50 was greater than 625 nM in assay [1], less than 10 nM in assay [2] and 10 to 100 nM in assay [4]. In addition, the IC50 in assay [3] was less than 10 nM.

For `COc1cc(OC[C@@H]2CCc3cc([C@H]4CC[C@](N)(COP(=O)(O)O)C4)ccc3C2)ccc1F` [compound 485], the EC50 is greater than 625 nM in assay [1], 10 to 100 nM in assay [2] and 10 to 100 nM in assay [4]. Besides, the IC50 in assay [3] fell in the range of 10 to 100 nM.

On to `C/C=C\CCCC[C@H]1CCc2cc([C@H]3CC[C@](N)(COP(=O)(O)O)C3)ccc2C1` [compound 660], for which the EC50 in assay [1] was greater than 625 nM; in assay [2], 10 to 100 nM; in assay [4], less than 10 nM. Moreover, the IC50 in assay [3] was less than 10 nM.

Take `CC/C=C\CC[C@@H]1CCc2cc([C@H]3CC[C@](N)(COP(=O)(O)O)C3)ccc2C1` [compound 651]: the EC50 in assay [1] was greater than 625 nM; in assay [2], 10 to 100 nM; in assay [4], 10 to 100 nM. Moreover, the IC50 in assay [3] fell in the range of 10 to 100 nM.

As for `CC/C=C/CC[C@@H]1CCc2cc([C@H]3CC[C@](N)(COP(=O)(O)O)C3)ccc2C1` [compound 650], the EC50 in assay [1] is greater than 625 nM; in assay [2], 10 to 100 nM; in assay [4], 100 to 1000 nM. For the same compound, the IC50 in assay [3] was 10 to 100 nM.

For the compound `N[C@@]1(COP(=O)(O)O)CC[C@@H](c2ccc3c(c2)CC[C@H](CCc2cccnc2)C3)C1` (single isomer, unassigned) [compound 606], the values for the EC50 in assay [1], in assay [2] and in assay [4] were greater than 625 nM, less than 10 nM and 10 to 100 nM, respectively. In addition, the IC50 in assay [3] was in the range of 10 to 100 nM.

`CC(C)CSCC[C@H]1CCc2cc([C@H]3CC[C@](N)(COP(=O)(O)O)C3)ccc2C1` [compound 539]: the EC50 in assay [1] was greater than 625 nM; in assay [2] it was less than 10 nM; in assay [4] it was less than 10 nM. Moreover, in assay [3], the IC50 is less than 10 nM.

`CC(C)(C)CSC[C@H]1CCc2cc([C@H]3CC[C@](N)(COP(=O)(O)O)C3)ccc2C1` [compound 514]: the values for the EC50 in assay [1], in assay [2] and in assay [4] were greater than 625 nM, 10 to 100 nM and 10 to 100 nM, respectively. Also, the IC50 in assay [3] is less than 10 nM.

For the compound `CC/C=C\COC[C@@H]1CCc2cc([C@H]3CC[C@](N)(COP(=O)(O)O)C3)ccc2C1` [compound 455], the EC50 in assay [1] is greater than 625 nM; in assay [2], less than 10 nM; in assay [4] it was less than 10 nM. In assay [3], the IC50 was less than 10 nM.

In the case of `C/C=C\CCC[C@H]1CCc2cc([C@H]3CC[C@](N)(COP(=O)(O)O)C3)ccc2C1` [compound 657], the EC50 was greater than 625 nM in assay [1], 10 to 100 nM in assay [2] and less than 10 nM in assay [4]. The IC50 in assay [3] is 10 to 100 nM.

Regarding `CCCCCCC1Cc2ccc([C@H]3CC[C@](N)(COP(=O)(O)O)C3)cc2CO1` (stereo partly drawn) [compound 421], the EC50 in assay [1] was greater than 625 nM; in assay [2], less than 10 nM; in assay [4], less than 10 nM. For the same compound, in assay [3], the IC50 was less than 10 nM.

With `CCCCCCCCCCOC[C@H]1CCc2cc([C@H]3CC[C@](N)(COP(=O)(O)O)C3)ccc2C1` [compound 450], the EC50 in assay [1] is greater than 625 nM; in assay [2], 10 to 100 nM; in assay [4] it was less than 10 nM. In addition, the IC50 in assay [3] is less than 10 nM.

`Cc1ccc(COC[C@@H]2CCc3cc([C@H]4CC[C@](N)(COP(=O)(O)O)C4)ccc3C2)cc1` [compound 474]: the EC50 was greater than 625 nM in assay [1], less than 10 nM in assay [2] and 10 to 100 nM in assay [4]. The IC50 in assay [3] is less than 10 nM.

Take `N[C@]1(COP(=O)(O)O)CC[C@@H](c2ccc3c(c2)CC[C@@H](CSc2ccccc2)C3)C1` [compound 508]: the EC50 in assay [1] is greater than 625 nM; in assay [2], 10 to 100 nM; in assay [4], 100 to 1000 nM. In assay [3], the IC50 was 10 to 100 nM.

Consider `CCCCCO[C@H]1CCc2cc([C@@H]3CC[C@](N)(COP(=O)(O)O)C3)ccc2C1` [compound 434], for which the values for the EC50 in assay [1], in assay [2] and in assay [4] were greater than 625 nM, less than 10 nM and 10 to 100 nM, respectively. The IC50 in assay [3] is less than 10 nM.

For the compound `CC(C)CCSC[C@H]1CCc2cc([C@H]3CC[C@](N)(COP(=O)(O)O)C3)ccc2C1` [compound 511], the figures for the EC50 in assay [1], in assay [2] and in assay [4] were greater than 625 nM, less than 10 nM and 10 to 100 nM, respectively. Further, the IC50 in assay [3] was less than 10 nM.

Turning to `COc1cc(OC[C@@H]2CCc3cc([C@H]4CC[C@](N)(COP(=O)(O)O)C4)ccc3C2)ccc1C(C)(C)C` [compound 498], the EC50 in assay [1] was greater than 625 nM; in assay [2] it was 10 to 100 nM; in assay [4], 100 to 1000 nM. In addition, in assay [3], the IC50 lay in the range of 10 to 100 nM.

Consider `COCCC[C@H]1CCc2cc([C@@H]3CC[C@@](N)(COP(=O)(O)O)C3)ccc2C1` [compound 595], for which the EC50 in assay [1] was greater than 625 nM; in assay [2], less than 10 nM; in assay [4] it was 10 to 100 nM. The IC50 in assay [3] was less than 10 nM.

On to `CC(C)=CCCC[C@@H]1CCc2cc([C@H]3CC[C@](N)(COP(=O)(O)O)C3)ccc2C1` [compound 556], for which the EC50 in assay [1] is greater than 625 nM; in assay [2] it was less than 10 nM; in assay [4], less than 10 nM. The IC50 in assay [3] was in the range of 1000 to 10000 nM.

For the compound `CCC/C=C\CO[C@H]1CCc2cc([C@H]3CC[C@](N)(COP(=O)(O)O)C3)ccc2C1` [compound 437], the results for the EC50 in assay [1], in assay [2] and in assay [4] were greater than 625 nM, less than 10 nM and less than 10 nM, respectively. The IC50 in assay [3] is less than 10 nM.

For `CCCCOCCO[C@H]1CCc2cc([C@@H]3CC[C@@](N)(COP(=O)(O)O)C3)ccc2C1` [compound 591], the EC50 is greater than 625 nM in assay [1], less than 10 nM in assay [2] and 10 to 100 nM in assay [4]. Also, the IC50 in assay [3] lay in the range of 10 to 100 nM.

For the compound `Cc1ccccc1OC[C@H]1CCc2cc([C@H]3CC[C@](N)(COP(=O)(O)O)C3)ccc2C1` [compound 468], the figures for the EC50 in assay [1], in assay [2] and in assay [4] were greater than 625 nM, 10 to 100 nM and 10 to 100 nM, respectively. For the same compound, in assay [3], the IC50 is less than 10 nM.

Turning to `Cc1cccc(OC[C@@H]2CCc3cc([C@H]4CC[C@](N)(COP(=O)(O)O)C4)ccc3C2)c1` [compound 470], the EC50 in assay [1] is greater than 625 nM; in assay [2], less than 10 nM; in assay [4] it was 10 to 100 nM. The IC50 in assay [3] was 100 to 1000 nM.

Regarding `Cn1nc(OC[C@@H]2CCc3cc([C@H]4CC[C@](N)(COP(=O)(O)O)C4)ccc3C2)cc1C(F)(F)F` [compound 496], the EC50 in assay [1] is greater than 625 nM; in assay [2] it was less than 10 nM; in assay [4], less than 10 nM. In addition, in assay [3], the IC50 was less than 10 nM.

For `COc1cncc(OC[C@@H]2CCc3cc([C@H]4CC[C@](N)(COP(=O)(O)O)C4)ccc3C2)c1` [compound 477], the EC50 is greater than 625 nM in assay [1], less than 10 nM in assay [2] and 10 to 100 nM in assay [4]. In addition, in assay [3], the IC50 is less than 10 nM.

For the compound `C/C=C\CCC[C@@H]1CCc2cc([C@H]3CC[C@](N)(COP(=O)(O)O)C3)ccc2C1` [compound 656], the EC50 in assay [1] was greater than 625 nM; in assay [2], 10 to 100 nM; in assay [4], 10 to 100 nM. Besides, in assay [3], the IC50 lay in the range of 10 to 100 nM.

Regarding `CCCCCCC[C@H]1Cc2ccc([C@H]3CC[C@](N)(COP(=O)(O)O)C3)cc2CO1` [compound 428], the values for the EC50 in assay [1], in assay [2] and in assay [4] were greater than 625 nM, 10 to 100 nM and less than 10 nM, respectively. In assay [3], the IC50 is less than 10 nM.

With `COc1ccc(C[C@@H]2CCc3cc([C@H]4CC[C@](N)(COP(=O)(O)O)C4)ccc3C2)c(C)c1` [compound 546], the EC50 in assay [1] is greater than 625 nM; in assay [2], 10 to 100 nM; in assay [4] it was 100 to 1000 nM. In addition, the IC50 in assay [3] was in the range of 100 to 1000 nM.

As for `CCCCCO[C@@H]1CCc2cc([C@H]3CC[C@](N)(COP(=O)(O)O)C3)ccc2C1` [compound 430], the EC50 is greater than 625 nM in assay [1], less than 10 nM in assay [2] and 10 to 100 nM in assay [4]. The IC50 in assay [3] is 10 to 100 nM.

In the case of `CCCC/C=C\CO[C@H]1CCc2cc([C@H]3CC[C@](N)(COP(=O)(O)O)C3)ccc2C1` [compound 440], the EC50 in assay [1] is greater than 625 nM; in assay [2], less than 10 nM; in assay [4], less than 10 nM. Also, the IC50 in assay [3] is less than 10 nM.

Regarding `CCCCCC1CCc2cc([C@H]3CC[C@](N)(COP(=O)(O)O)C3)ccc2C1` (stereo partly drawn) [compound 575], the EC50 is greater than 625 nM in assay [1], less than 10 nM in assay [2] and 10 to 100 nM in assay [4]. For the same compound, in assay [3], the IC50 fell in the range of 10 to 100 nM.

For `CCCCO/N=C(\C)[C@@H]1CCc2cc([C@H]3CC[C@](N)(COP(=O)(O)O)C3)ccc2C1` [compound 665], the results for the EC50 in assay [1], in assay [2] and in assay [4] were greater than 625 nM, 10 to 100 nM and less than 10 nM, respectively. The IC50 in assay [3] is less than 10 nM.

Take `CCCSCC[C@@H]1CCc2cc([C@H]3CC[C@](N)(COP(=O)(O)O)C3)ccc2C1` [compound 535]: the EC50 in assay [1] was greater than 625 nM; in assay [2], less than 10 nM; in assay [4], less than 10 nM. Besides, the IC50 in assay [3] was less than 10 nM.
